Test results from patent EP4595983A1, “NANOPARTICLES FUNCTIONALISED WITH A STABILISING AGENT AND A TARGETING AGENT” (BXTA Nanotherapy Limited, priority 2024, dated 2025).
Peptide text beside a SMILES is read from it. * marks the point of attachment. Palmitoyl = CCCCCCCCCCCCCCCC(=O)*

Tests used:
[1] = tested on: DU145 parental cells; assay: Alamar blue viability assay; assay type: cell-based; conditions: pepducin exposure; comparative pepducin effect at both 300 nM and 600 nM
Procedure: (§1) Alamar blue viability assays assessed the impact of inhibiting CXCL8 pro-inflammatory signalling on the viability of various PCa cell lines (Figure 28). Three increasing concentrations of pepducin (150 nM, 300 nM and 600 nM) were assayed following a 6 h incubation. Following exposure to pepducin cells were washed in PBS and 10% Alamar blue solution added for 4 h. Fluorescence was then measured at 540 - 570 nm. […] (N = 4 +/- SEM).
(§2) Following exposure to pepducins, cells were washed in PBS and 10% Alamar blue solution added for 4 h. Fluorescence was then measured at 540 - 570 nm. […] (N=4 +/- SEM).

[2] = tested on: NT01; assay: Alamar blue viability assay; assay type: cell-based; conditions: pepducin exposure; comparative pepducin effect at both 300 nM and 600 nM
Procedure: as §1, §2

[3] = tested on: sh1102 cells; assay: Alamar blue viability assay; assay type: cell-based; conditions: pepducin exposure; comparative pepducin effect at both 300 nM and 600 nM
Procedure: as §1, §2

[4] = Solubility (peptide characteristics); assay type: physicochemical
[5] = tested on: various PCa cell lines; assay: Alamar blue viability assay; assay type: cell-based; conditions: 150 nM, 300 nM and 600 nM, 6 h incubation
Procedure: as §1

[6] = tested on: PC3 cells; assay: Alamar blue viability assay; assay type: cell-based; conditions: 6 h; for cell viability (significance): 150 nM, 300 nM and 600 nM; for reduction in viability: 300 nM
Procedure: as §1

| Compound | cell viability / toxicity [1] | cell viability / toxicity [2] | cell viability / toxicity [3] | Solubility [4] | cell viability [5] | cell viability (significance) [6] | reduction in viability [6] [%] |
| --- | --- | --- | --- | --- | --- | --- | --- |
| CCCCCCCCCCCCCCCC(=O)N[C@@H](CCCNC(=N)N)C(=O)N[C@H](C(=O)N[C@@H](CC(C)C)C(=O)N[C@@H](Cc1ccccc1)C(=O)N[C@@H](CCCCN)C(=O)N[C@@H](C)C(=O)N[C@@H](Cc1c[nH]cn1)C(=O)N[C@@H](CCSC)C(=O)NCC(=O)N[C@@H](CCC(N)=O)C(=O)N[C@@H](CCCCN)C(=O)N[C@@H](Cc1c[nH]cn1)C(=O)N[C@@H](CCCNC(=N)N)C(=O)N[C@@H](CS)C(N)=O)[C@@H](C)O [SEQ ID 3, Pal-RTLFKAHMGQKHRC-NH2] (Palmitoyl-RTLFKAHMGQKHRC-NH2) | did not show any significant toxicity | did not show any significant toxicity | did not show any significant toxicity | 1:4 (Acetonitirile:H2O) | did not significantly reduce cell viability | no significant reduction in viability | 8 |
| CCCCCCCCCCCCCCCC(=O)N[C@@H](CCCNC(=N)N)C(=O)N[C@H](C(=O)N[C@@H](CC(C)C)C(=O)N[C@@H](Cc1ccccc1)C(=O)N[C@@H](CCCCN)C(=O)N[C@@H](C)C(=O)N[C@@H](Cc1c[nH]cn1)C(=O)N[C@@H](CCSC)C(=O)NCC(=O)N[C@@H](CCC(N)=O)C(=O)N[C@@H](CCCCN)C(=O)N[C@@H](Cc1c[nH]cn1)C(=O)N[C@@H](CCCNC(=N)N)C(N)=O)[C@@H](C)O [comparative pepducin] (Palmitoyl-RTLFKAHMGQKHR-NH2) | significantly reduced cell viability | significantly reduced cell viability | significantly reduced cell viability | – | did not significantly reduce cell viability | – | 25 |
| scrambled control: scrambled control (corresponding to SEQ ID 7) (Palmitoyl-TRFLAKMHQGHKRC-NH2; SMILES CCCCCCCCCCCCCCCC(=O)N[C@H](C(=O)N[C@@H](CCCNC(=N)N)C(=O)N[C@@H](Cc1ccccc1)C(=O)N[C@@H](CC(C)C)C(=O)N[C@@H](C)C(=O)N[C@@H](CCCCN)C(=O)N[C@@H](CCSC)C(=O)N[C@@H](Cc1c[nH]cn1)C(=O)N[C@@H](CCC(N)=O)C(=O)NCC(=O)N[C@@H](Cc1c[nH]cn1)C(=O)N[C@@H](CCCCN)C(=O)N[C@@H](CCCNC(=N)N)C(=O)N[C@@H](CS)C(N)=O)[C@@H](C)O) | did not show any significant toxicity | did not show any significant toxicity | did not show any significant toxicity | – | did not significantly reduce cell viability | no significant affects | – |
